The values below come from US12454529B2, “Piperazine cyclic ureas” (SIRONAX LTD., priority 2020, dated 2025).

In one experiment the test system is HT-29 cells. The experiment is described as follows: HT-29 cell necrosis/necroptosis inhibition (TNF-α + SMAC mimetic + zVAD-FMK; CellTiter-Glo cell viability). The experiment is classed as cell-based. The settings on record: Homo sapiens, HT-29, 20 h, read-out: EC50 (Cell activity; Necrosis/Necroptosis Inhibitory Activity, Compounds 1-142). An outline of the steps: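 Necroptosis was driven by TNF-α 10 ng/ml plus SMAC mimetic 6 μM and zVAD-FMK 10 μM in serum-free medium, with compounds as a 10-point threefold titration. After 20 h at 37 °C, ATP-based luminescence was read; EC50 values are geometric means of duplicate curves.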
(In general: Cellular ATP, detected with luciferase, serves as a proxy for viable cell number.)
As usually defined, the EC50 is the concentration at which the effect is half-maximal. `Cc1nn(C[C@@H]2CO2)c(C)c1-c1nc(N2CCN(C(=O)N3N=CC[C@H]3c3cc(F)cc(C#N)c3)CC2)ncc1F` [Compound 133, 3-((S)-1-(4-(4-(3,5-dimethyl-1-(((R)-oxiran-2-yl)methyl)-1H-pyrazol-4-yl)-5-fluoropyrimidin-2-yl)piperazine-1-carbonyl)-4,5-dihydro-1H-pyrazol-5-yl) fluorobenzonitrile]: the EC50 lay within 0.1 to 100 nM.

The same experiment, now with this note: Homo sapiens; HT-29 cells, TNF-α 10 ng/ml + SMAC mimetic 6 μM + zVAD-FMK 10 μM, 20 hours; geometric mean, 10 points in duplicate; read-out: EC50 (Cell activity; Necrosis/Necroptosis Inhibitory Activity, Compounds 1-142).
Turning to `Cc1n[nH]c(C)c1-c1nc(N2CCN(C(=O)N3N=CC[C@H]3c3cc(F)cc(F)c3)CC2)ncc1F` [Compound 93, (S)-(5-(3,5-difluorophenyl)-4,5-dihydro-1H-pyrazol-1-yl)(4-(4-(3,5-dimethyl-1H-pyrazol-4-yl)-5-fluoropyrimidin-2-yl)piperazin-1-yl)methanone], the EC50 lay in the range of 0.1 to 100 nM.

With `N#Cc1cccc([C@@H]2CC=NN2C(=O)N2CCN(c3nccc(-n4cc(C(N)=O)cn4)n3)CC2)c1` [Compound 106, (S)-1-(2-(4-(5-(3-cyanophenyl)-4,5-dihydro-1H-pyrazole-1-carbonyl)piperazin-1-yl)pyrimidin-4-yl)-1H-pyrazole-4-carboxamide], the EC50 lay within 0.1 to 100 nM.

On to `Cn1cc(-c2nc(N3CCN(C(=O)N4N=CC[C@H]4c4cc(F)cc(F)c4)CC3)ncc2F)ccc1=O` [Compound 89, (S)-5-(2-(4-(5-(3,5-difluorophenyl)-4,5-dihydro-1H-pyrazole-1-carbonyl)piperazin-1-yl)-5-fluoropyrimidin-4-yl)-1-methylpyridin-2(1H)-one], for which the EC50 lay within 0.1 to 100 nM.

In the case of `N#Cc1cn(-c2ccnc(N3CCN(C(=O)N4N=CC[C@H]4c4cc(F)cc(F)c4)CC3)n2)cn1` [Compound 2, (S)-1-(2-(4-(5-(3,5-difluorophenyl)-4,5-dihydro-1H-pyrazole-1-carbonyl)piperazin-1-yl)pyrimidin-4-yl)-1H-imidazole-4-carbonitrile], the EC50 fell in the range of 0.1 to 100 nM.

With `Cc1nnc(-c2nc(N3CCN(C(=O)N4N=CC[C@H]4c4cc(F)cc(C#N)c4)CC3)ncc2F)s1` [Compound 64, (S)-3-fluoro-5-(1-(4-(5-fluoro-4-(5-methyl-1,3,4-thiadiazol-2-yl)pyrimidin-2-yl)piperazine-1-carbonyl)-4,5-dihydro-1H-pyrazol-5-yl)benzonitrile], the EC50 lay in the range of 0.1 to 100 nM.

For the compound `Cc1[nH]nnc1-c1nc(N2CCN(C(=O)N3N=CC[C@H]3c3cc(F)cc(F)c3)CC2)ncc1F` [Compound 30, (S)-(5-(3,5-difluorophenyl)-4,5-dihydro-1H-pyrazol-1-yl)(4-(5-fluoro-4-(5-methyl-1H-1,2,3-triazol-4-yl)pyrimidin-2-yl)piperazin-1-yl)methanone], the EC50 was 0.1 to 100 nM.

Consider `NC(=O)c1cnn(-c2nc(N3CCN(C(=O)N4N=CC[C@H]4c4cc(F)cc(F)c4)CC3)ncc2F)c1` [Compound 101, (5)-1-(2-(4-(5-(3,5-difluorophenyl)-4,5-dihydro-1H-pyrazole-1-carbonyl)piperazin-1-yl)-5-fluoropyrimidin-4-yl)-1H-pyrazole-4-carboxamide], for which the EC50 was 0.1 to 100 nM.

For the compound `Cc1nn(CC2CC2)c(C)c1-c1nc(N2CCN(C(=O)N3N=CC[C@H]3c3cc(F)cc(F)c3)CC2)ncc1F` [Compound 121, (S)-(4-(4-(1-(cyclopropylmethyl)-3,5-dimethyl-1H-pyrazol-4-yl)fluoropyrimidin-2-yl)piperazin-1-yl)(5-(3,5-difluorophenyl)-4,5-dihydro-1H-pyrazol-1-yl)methanone], the EC50 fell in the range of 0.1 to 100 nM.

As for `Cc1nn(C)c(C)c1-c1nc(N2CCN(C(=O)N3N=CC[C@H]3c3cc(F)cc(F)c3)CC2)ncc1F` [Compound 58, (S)-(5-(3,5-difluorophenyl)-4,5-dihydro-1H-pyrazol-1-yl)(4-(5-fluoro-4-(1,3,5-trimethyl-1H-pyrazol-4-yl)pyrimidin-2-yl)piperazin-1-yl)methanone], the EC50 is 0.1 to 100 nM.

Turning to `CCOC(=O)c1nc(C)n(-c2nc(N3CCN(C(=O)N4N=CC[C@H]4c4cc(F)cc(C#N)c4)CC3)ncc2F)n1` [Compound 129, ethyl (S)-1-(2-(4-(5-(3-cyano-5-fluorophenyl)-4,5-dihydro-1H-pyrazole-1-carbonyl)piperazin-1-yl)-5-fluoropyrimidin-4-yl)-5-methyl-1H-1,2,4-triazole-3-carboxylate], the EC50 was 0.1 to 100 nM.

For the compound `N#Cc1cc(F)cc([C@@H]2CC=NN2C(=O)N2CCN(c3ncc(F)c(-n4ccc(C#N)n4)n3)CC2)c1` [Compound 128, (S)-1-(2-(4-(5-(3-cyano-5-fluorophenyl)-4,5-dihydro-1H-pyrazole-1-carbonyl)piperazin-1-yl)-5-fluoropyrimidin-4-yl)-1H-pyrazole-3-carbonitrile], the EC50 fell in the range of 0.1 to 100 nM.

Take `Cc1nn(CC2CCCCO2)c(C)c1-c1nc(N2CCN(C(=O)N3N=CC[C@H]3c3cc(F)cc(C#N)c3)CC2)ncc1F` (stereo partly shown) [Compound 137, 3-((58)-1-(4-(4-(3,5-dimethyl-1-((tetrahydro-2H-pyran-2-yl)methyl)-1H-pyrazol-4-yl)-5-fluoropyrimidin-2-yl)piperazine-1-carbonyl)-4,5-dihydro-1H-pyrazol-5-yl)-5-fluorobenzonitrile]: the concentration giving a half-maximal response (EC50) was 0.1 to 100 nM.

As to `N#Cc1cc(F)cc([C@@H]2CC=NN2C(=O)N2CCN(c3ncc(F)c(-c4cc(O)nc(O)n4)n3)CC2)c1` [Compound 50, (S)-3-fluoro-5-(1-(4-(5-fluoro-2′,6′-dihydroxy-[4,4′-bipyrimidin]-2-yl)piperazine-1-carbonyl)-4,5-dihydro-1H-pyrazol-5-yl)benzonitrile], the EC50 lay within 0.1 to 100 nM.

Still in this experiment, the particulars now being: Homo sapiens; HT-29 cells, TNF-α 10 ng/ml + SMAC mimetic 6 μM + zVAD-FMK 10 μM, 20 hours; geometric mean, 10 points in duplicate; read-out: EC50 (Cell activity; Necrosis/Necroptosis Inhibitory Activity, Compounds 143-323).
As to `Cc1csc(C2CC=NN2C(=O)N2CCN(c3cc(-c4c(C)cnn4C)ncc3F)CC2)n1` (stereo not shown) [Compound 157, (4-(2-(1,4-dimethyl-1H-pyrazol-5-yl)-5-fluoropyridin-4-yl)piperazin-1-yl)(5-(4-methylthiazol-2-yl)-4,5-dihydro-1H-pyrazol-1-yl)methanone], the EC50 lay in the range of 100 to 1000 nM.

Turning to `Cc1cnc(C2CC=NN2C(=O)N2CCN(c3nc(-c4c(C)cnn4C)ncc3F)CC2)s1` (stereo not shown) [Compound 145, (4-(2-(1,4-dimethyl-1H-pyrazol-5-yl)-5-fluoropyrimidin-4-yl)piperazin-1-yl)(5-(5-methylthiazol-2-yl)-4,5-dihydro-1H-pyrazol-1-yl)methanone], the EC50 lay in the range of 0.1 to 100 nM.

For the compound `Cc1nc(C)n(-c2nc(N3CCN(C(=O)N4N=CC[C@H]4c4cc(F)cc(F)c4F)CC3)ncc2F)n1` [Compound 264, (S)-(4-(4-(3,5-dimethyl-1H-1,2,4-triazol-1-yl)-5-fluoropyrimidin-2-yl)piperazin-1-yl)(5-(2,3,5-trifluorophenyl)-4,5-dihydro-1H-pyrazol-1-yl)methanone], the EC50 was 0.1 to 100 nM.

For the compound `Cc1nc(C)n(-c2ncc(F)c(N3CCN(C(=O)N4N=CC[C@H]4c4cc(F)cc(C#N)c4)CC3)n2)n1` [Compound 258, (S)-3-(1-(4-(2-(3,5-dimethyl-1H-1,2,4-triazol-1-yl)-5-fluoropyrimidin-4-yl)piperazine-1-carbonyl)-4,5-dihydro-1H-pyrazol-5-yl)-5-fluorobenzonitrile], the EC50 is 0.1 to 100 nM.

As to `Cc1c(N)nn(C)c1-c1ccnc(N2CCN(C(=O)N3N=CC[C@H]3c3cc(F)cc(C#N)c3)CC2)n1` [Compound 154, (S)-3-(1-(4-(4-(3-amino-1,4-dimethyl-1H-pyrazol-5-yl)pyrimidin-2-yl)piperazine-1-carbonyl)-4,5-dihydro-1H-pyrazol-5-yl)-5-fluorobenzonitrile], the EC50 was 0.1 to 100 nM.

With `Cc1nc(C)n(-c2nc(N3CCN(C(=O)N4N=CCC4c4ncccc4Cl)CC3)ncc2F)n1` (stereo not shown) [Compound 189, (5-(3-chloropyridin-2-yl)-4,5-dihydro-1H-pyrazol-1-yl)(4-(4-(3,5-dimethyl-1H-1,2,4-triazol-1-yl)-5-fluoropyrimidin-2-yl)piperazin-1-yl)methanone], the EC50 is 0.1 to 100 nM.

`Cc1nc(CO)nn1-c1nc(N2CCN(C(=O)N3N=CC[C@H]3c3cc(F)cc(C#N)c3)CC2)ncc1F` [Compound 144, (S)-3-fluoro-5-(1-(4-(5-fluoro-4-(3-(hydroxymethyl)-5-methyl-1H-1,2,4-triazol-1-yl)pyrimidin-2-yl)piperazine-1-carbonyl)-4,5-dihydro-1H-pyrazol-5-yl)benzonitrile]: the EC50 fell in the range of 0.1 to 100 nM.

As to `Cc1nc(C(N)=O)nn1-c1nc(N2CCN(C(=O)N3N=CC[C@H]3c3cc(F)cc(F)c3)CC2)ncc1F` [Compound 252, (S)-1-(2-(4-(5-(3,5-difluorophenyl)-4,5-dihydro-1H-pyrazole-1-carbonyl)piperazin-1-yl)-5-fluoropyrimidin-4-yl)-5-methyl-1H-1,2,4-triazole-3-carboxamide], the concentration giving a half-maximal response (EC50) lay within 0.1 to 100 nM.

For `Cc1nc(C)n(-c2nc(N3CCN(C(=O)N4N=CCC4c4nccs4)CC3)ncc2F)n1` (stereo not shown) [Compound 217, (4-(4-(3,5-dimethyl-1H-1,2,4-triazol-1-yl)-5-fluoropyrimidin-2-yl)piperazin-1-yl)(5-(thiazol-2-yl)-4,5-dihydro-1H-pyrazol-1-yl)methanone], the EC50 fell in the range of 0.1 to 100 nM.

`CCn1cnn(-c2nc(N3CCN(C(=O)N4N=CC[C@H]4c4cc(F)cc(C#N)c4)CC3)ncc2F)c1=O` [Compound 200, (S)-3-(1-(4-(4-(4-ethyl-5-oxo-4,5-dihydro-1H-1,2,4-triazol-1-yl)-5-fluoropyrimidin-2-yl)piperazine-1-carbonyl)-4,5-dihydro-1H-pyrazol-5-yl)-5-fluorobenzonitrile]: the EC50 lay within 0.1 to 100 nM.

For `Cc1cnc([C@@H]2CC=NN2C(=O)N2CCN(c3ncc(F)c(-c4ncnn4C)n3)CC2)s1` [Compound 318, (S)-(4-(5-fluoro-4-(1-methyl-1H-1,2,4-triazol-5-yl)pyrimidin-2-yl)piperazin-1-yl)(5-(5-methylthiazol-2-yl)-4,5-dihydro-1H-pyrazol-1-yl)methanone], the EC50 lay in the range of 0.1 to 100 nM.
